Experimental data reported in ChEMBL document CHEMBL1201862, “PubChem BioAssay data set” (2004).
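Assay format: 96-well plates, 48-hour exposure. Abbreviation: GI50, concentration required for 50% inhibition of growth.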 Activity calls are given as the source filed them. Rule as the data show it: active = GI50 up to about 1.1 µM and inactive = higher.

Key:
Test in all cases: NCI anticancer screen, dose series, 48 h
[1] = test system: A549
[2] = test system: ACHN
[3] = test system: BT-549
[4] = test system: CAKI-1
[5] = test system: EKVX
[6] = test system: K562
[7] = test system: M14
[8] = test system: MCF7
[9] = test system: Malme-3M
[10] = test system: NCI-H226
[11] = test system: OVCAR-4
[12] = test system: OVCAR-8
[13] = test system: SF-268
[14] = test system: SF-295
[15] = test system: SNB-19
[16] = test system: SW-620
[17] = test system: T47D
[18] = test system: UACC-62
[19] = test system: MDA-N

Measured: GI50

Nc1ccc(S(=O)(=O)c2ccc(/N=[N+](\[O-])c3ccc(S(=O)(=O)c4ccc(N)cc4)cc3)cc2)cc1
inactive: [1] > 100 µM | [2] > 60.5 µM | [3] 27.2 µM | [4] 86.9 µM | [5] 50 µM | [6] > 100 µM | [7] 99.3 µM | [8] > 64.6 µM | [9] > 56.4 µM | [10] 14.6 µM | [11] 19.4 µM | [12] 41.2 µM | [13] 15 µM | [14] 22.1 µM | [15] 44.4 µM | [16] > 100 µM | [17] > 48 µM | [18] > 50 µM

CC(SC(=S)N(C)C)C(=O)Nc1nnc(-c2ccc(Cl)cc2)o1 (stereo unspecified)
inactive: [1] 33.3 µM | [2] 36 µM | [3] 89.1 µM | [6] 14.3 µM | [7] 37.1 µM | [8] 26.7 µM | [9] 90.2 µM | [10] 40.6 µM | [11] 44.7 µM | [12] 49.7 µM | [13] 29 µM | [15] 35.3 µM | [16] 34.7 µM | [17] 44.8 µM | [18] 45.8 µM

COc1ccc2c(c1)CCN1CCc3cc(OC)c(OC)cc3CC21 (stereo unspecified)
inactive: [1] > 100 µM | [2] > 100 µM | [3] 10.3 µM | [4] > 100 µM | [5] > 10 µM | [6] 34.9 µM | [7] 58.5 µM | [8] 90.4 µM | [10] > 100 µM | [11] > 100 µM | [12] > 100 µM | [13] 28.9 µM | [14] > 100 µM | [15] 82 µM | [16] 80.5 µM | [17] 73.3 µM | [18] 32.6 µM

NNC(=O)C(=O)N/N=C1\CCC(=O)CC1C(=O)CCC(=O)Nc1ccc(Cl)cc1 (stereo unspecified)
inactive: [1] > 100 µM | [2] > 100 µM | [4] > 100 µM | [5] > 100 µM | [6] > 100 µM | [7] > 100 µM | [9] > 100 µM | [10] > 100 µM | [11] > 100 µM | [12] > 100 µM | [13] > 100 µM | [14] > 100 µM | [15] > 100 µM | [16] > 100 µM | [18] > 100 µM

N#Cc1nc(-c2cccnc2)oc1N
inactive: [2] > 100 µM | [4] > 100 µM | [5] > 100 µM | [6] > 100 µM | [9] > 100 µM | [10] > 100 µM | [11] > 100 µM | [13] > 100 µM | [15] > 100 µM | [16] > 100 µM | [18] > 100 µM

NC(=O)NC(=O)c1cccc(CNc2ccc(C(=O)N[C@@H](CCC(=O)O)C(=O)O)cc2)n1
inactive: [1] > 100 µM | [2] > 100 µM | [3] > 100 µM | [4] > 100 µM | [5] > 100 µM | [6] > 100 µM | [7] > 100 µM | [8] > 100 µM | [19] > 100 µM | [10] > 100 µM | [11] > 100 µM | [12] > 100 µM | [13] > 100 µM | [14] > 100 µM | [16] > 100 µM | [18] 4 µM

Cc1ccc(S(=O)(=O)N(CC(O)COc2ccccc2)c2ccc(F)cc2F)cc1 (stereo unspecified)
inactive: [1] 12.9 µM | [2] 16.5 µM | [4] 12.2 µM | [5] 14.7 µM | [6] 34.8 µM | [7] 17.3 µM | [19] 15.5 µM | [9] 16 µM | [10] 18.8 µM | [11] 11.6 µM | [12] 17.3 µM | [13] 15.3 µM | [14] 17.2 µM | [15] 18.1 µM | [16] 16.5 µM | [17] 17.2 µM | [18] 13.5 µM

O=C(/C=C/c1ccc(-c2ccccc2[N+](=O)[O-])o1)NCc1ccc(C(=O)NCCc2ccccc2)cc1
inactive: [1] > 100 µM | [2] > 100 µM | [3] > 100 µM | [4] > 100 µM | [5] > 100 µM | [6] > 100 µM | [7] > 100 µM | [8] > 100 µM | [9] > 100 µM | [10] > 100 µM | [11] > 100 µM | [12] > 100 µM | [13] > 100 µM | [14] > 100 µM | [15] > 100 µM | [16] > 100 µM | [17] > 100 µM | [18] 6.4 µM

C/C(CC(=O)Nc1cc(C)ccc1C)=N\NC(=O)c1ccncc1
inactive: [1] > 100 µM | [5] > 100 µM | [6] > 100 µM | [7] > 100 µM | [9] > 100 µM | [10] > 100 µM | [12] > 100 µM | [13] > 100 µM | [14] > 100 µM | [16] > 100 µM | [18] > 100 µM

S=C(Nc1ccccc1)Nc1[nH]c(=S)sc1-c1nc2ccccc2[nH]1
inactive: [1] 65.6 µM | [2] 72.4 µM | [4] 94 µM | [5] 75.9 µM | [6] > 100 µM | [7] 49.8 µM | [9] 43 µM | [10] 12.2 µM | [11] 15.2 µM | [12] 48.8 µM | [13] 48.9 µM | [14] 41.9 µM | [15] 36.9 µM | [16] > 100 µM | [18] 57.9 µM

OCSc1nn(CO)c(=S)s1
inactive: [1] 33.2 µM | [2] 25.1 µM | [4] 31.1 µM | [5] 33.7 µM | [6] 20.7 µM | [7] 20.1 µM | [8] 15.4 µM | [9] 22.5 µM | [10] 31.6 µM | [11] 18.5 µM | [12] 10.5 µM | [13] 21.6 µM | [14] 26.9 µM | [15] 25.8 µM | [16] 28.1 µM | [17] 23.9 µM | [18] 17.5 µM

COc1ccc(/C=C2/C(C)=NN(c3cccc(Cl)c3)/C2=N/c2nc3ccccc3s2)cc1
inactive: [2] 20.6 µM | [4] 28.4 µM | [5] 40.2 µM | [6] 26.7 µM | [7] 25.1 µM | [8] 28.8 µM | [19] 21.7 µM | [10] 22.3 µM | [11] 37.4 µM | [12] 22.6 µM | [13] 25.6 µM | [14] 22.5 µM | [16] 22.7 µM | [17] 34 µM

O=CN1CCN(C(=O)c2ccc(Cl)c(Cl)c2)C1=S
inactive: [1] 17.7 µM | [2] 17.3 µM | [3] 18 µM | [4] 14.9 µM | [5] 17.5 µM | [6] 13.8 µM | [7] 16.8 µM | [8] 4.63 µM | [9] 20.5 µM | [10] 20.7 µM | [11] 18.2 µM | [12] 15 µM | [13] 22.2 µM | [14] 17.9 µM | [15] 17.5 µM | [16] 19.4 µM | [17] 15.3 µM | [18] 16 µM

O=C(C=P(c1ccccc1)(c1ccccc1)c1ccccc1)c1ccc(-c2cccc([N+](=O)[O-])c2)s1
inactive: [1] 57.5 µM | [2] 45.4 µM | [3] > 100 µM | [4] 35.2 µM | [5] 57.7 µM | [6] 37 µM | [7] > 100 µM | [8] 29.4 µM | [19] 29.7 µM | [9] 81.7 µM | [11] 31.3 µM | [12] 47.3 µM | [13] > 100 µM | [14] 47.4 µM | [15] > 100 µM | [16] 38.2 µM | [18] 59 µM

Cc1cc2c(cc1C)[n+]([O-])c(NCCCN(C)C)c(C#N)[n+]2[O-]
inactive: [1] > 100 µM | [2] > 100 µM | [3] 79.1 µM | [4] 72.1 µM | [5] 68.5 µM | [6] 37.5 µM | [7] > 100 µM | [8] > 100 µM | [19] > 100 µM | [9] 95.1 µM | [10] 67 µM | [11] > 100 µM | [12] > 100 µM | [13] > 100 µM | [14] 42 µM | [15] > 100 µM | [16] > 100 µM | [18] 76.4 µM

C=C1C2CC(OC(C)=O)C3(C)C(c4ccoc4)OC(=O)[C@@H](O)[C@]13OC1C[C@H](OC(C)=O)C(C)(C)[C@H](C(O)C(=O)OC)[C@]12C (stereo partly specified)
inactive: [1] > 100 µM | [2] > 100 µM | [5] > 100 µM | [6] > 100 µM | [7] > 100 µM | [10] > 100 µM | [11] > 100 µM | [12] > 100 µM | [14] > 100 µM | [15] > 100 µM | [16] > 100 µM | [18] > 100 µM

CN(C)Cc1cc(C(=O)/C=C/c2ccc(Br)cc2)cc(CN(C)C)c1O
inactive: [1] 8.22 µM | [2] 3.6 µM | [4] 2.28 µM | [5] 13.2 µM | [6] 2.43 µM | [7] 4.79 µM | [8] 6.61 µM | [19] 2.22 µM | [9] 16.6 µM | [10] 17.3 µM | [11] 7.46 µM | [12] 4.03 µM | [13] 18.2 µM | [14] 5.58 µM | [15] 12.8 µM | [16] 4.25 µM | [17] 15.9 µM
